Tests used:
[1] = test system: RKO (RKOp27) human colon adenocarcinoma cells; assay: Alamar Blue cell viability assay, anti-proliferative/cytotoxic activity on proliferating RKO subclones; assay type: cell-based; settings: RKOp27, 72 h, RKO p27 uninduced (proliferating) cells, value = class bound given in Table A, read-out: −logIC50 RKO p27 uninduced (proliferating) (converted)
Summary of the method: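 Alamar Blue fluorescence (ex 544, em 590 nm) after 72 h compound exposure at 37 °C, 5% CO2, normalised to untreated controls set at 100%. Cells were seeded at 5000 per well and dosed 24 h later with serial semi-logarithmic dilutions in 10% FCS DMEM, four replicates each. −log IC50 [mol/l] was derived from concentration-effect curves.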

[2] = test system: subclones of RKO colon adenocarcinoma cells (RKOp27 or RKOp21) arrested by Ponasterone A; assay: Alamar Blue cell viability assay, cell cycle specific mode of action: cells arrested by ectopic p27Kip1 induced by Ponasterone A versus proliferating cells; assay type: cell-based; settings: Homo sapiens, RKO p27 induced (arrested) cells, 10 μM Ponasterone A, 72 hours, value = class bound given in Table A, read-out: −logIC50 RKO p27 induced (arrested) (converted)
Summary of the method: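 Viability of proliferating versus Ponasterone A (10 μM)-arrested RKOp27/RKOp21 cells after 72 h compound exposure at 37° C, in quadruplicate. Read-out is Alamar Blue fluorescence (544/590 nm) normalised to untreated cells = 100%; values as −log IC50.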

SMILES	IC50 [2] [nM]	IC50 [1] [nM]
CCOc1ccccc1CCC(=O)Nc1sc2c(c1C#N)CCC(COC(=O)NCc1nccs1)C2 (stereo not shown) [Example 199, Thiazol-2-ylmethyl-carbamic acid 3-cyano-2-[3-(2-ethoxy-phenyl)-propanoylamino]-4,5,6,7-tetrahydro-benzo[b]thiophen-6-ylmethyl ester]	≥ 100000	≤ 501
CC(CC(=O)Nc1sc2c(c1C#N)CCC(COC(=O)N1CCOCC1)C2)c1ccccc1 (stereo not shown) [Example 378, Morpholine-4-carboxylic acid 3-cyano-2-[3-phenyl-butanoyl-amino]-4,5,6,7-tetrahydro-benzo[b] thiophen-6-ylmethyl ester]	≥ 10000	≤ 501
CC(CC(=O)Nc1sc2c(c1C#N)CCC(COC(=O)NCc1cccn1C)C2)c1cccnc1 (stereo not shown) [Example 285, (1-Methyl-1H-pyrrol-2-ylmethyl)-carbamic acid 3-cyano-2-(3-pyridin-3-yl-butanoylamino)-4,5,6,7-tetrahydro-benzo[b]thiophen-6-ylmethyl ester]	≥ 50100	501 to 2000
CCOC(=O)OC1CCc2c(sc(NC(=O)/C=C/c3ccccc3OCC)c2C#N)C1 (stereo not shown) [Example 6, Carbonic acid 3-cyano-2-[(E)-3-(2-ethoxy-phenyl)-allanoylamino]-4,5,6,7-tetrahydro-benzo[b]thiophen-6-yl ester ethyl ester]	≥ 100000	501 to 2000
CC(CC(=O)Nc1sc2c(c1C#N)CCC(COC(=O)NCc1ccccn1)C2)c1ccccc1 (stereo not shown) [Example 304, Pyridin-2-ylmethyl-carbamic acid 3-cyano-2-(3-phenyl-butanoylamino)-4,5,6,7-tetrahydro-benzo[b] thiophen-6-ylmethyl ester]	≥ 50100	≤ 501
CC(CC(=O)Nc1sc2c(c1C#N)CCC(OC(=O)NC1CCOCC1)C2)c1ccccc1 (stereo not shown) [Example 291, (Tetrahydro-pyran-4-yl)-carbamic acid 3-cyano-2-(3-phenyl-butanoyl-amino)-4,5,6,7-tetrahydro-benzo[b]thiophen-6-yl ester]	≥ 10000	≤ 501
Cc1oncc1CNC(=O)OCC1CCc2c(sc(NC(=O)/C=C/c3cccnc3)c2C#N)C1 (stereo not shown) [Example 71, (5-Methyl-isoxazol-4-ylmethyl)-carbamic acid 3-cyano-2-((E)-3-pyridin-3-yl-allanoylamino)-4,5,6,7-tetrahydro-benzo[b]thiophen-6-ylmethyl ester]	≥ 100000	501 to 2000

Second part, led by results:

IC50 [2] [nM]	SMILES	IC50 [1] [nM]
≥ 100000	COc1cccc(CCC(=O)Nc2sc3c(c2C#N)CCC(OC(=O)NCCO)C3)c1 (stereo not shown) [Example 250, (2-Hydroxy-ethyl)-carbamic acid 3-cyano-2-[3-(3-methoxy-phenyl)-propanoylamino]-4,5,6,7-tetrahydro-benzo[b]thiophen-6-yl ester]	≤ 501
≥ 100000	CCNC(=O)OC1CCc2c(sc(NC(=O)CCc3cccc(OC)c3)c2C#N)C1 (stereo not shown) [Example 248, Ethyl-carbamic acid 3-cyano-2-[3-(3-methoxy-phenyl)-propanoylamino]-4,5,6,7-tetrahydro-benzo[b]thiophen-6-yl ester]	≤ 501
≥ 10000	CC(CC(=O)Nc1sc2c(c1C#N)CCC(OC(=O)NCc1cccnc1)C2)c1ccccc1 (stereo not shown) [Example 288, Pyridin-3-ylmethyl-carbamicacid 3-cyano-2-(3-phenyl-butanoyl-amino)-4,5,6,7-tetrahydro-benzo[b]thiophen-6-yl ester]	≤ 501
≥ 100000	COc1cccc(C(C)CC(=O)Nc2sc3c(c2C#N)CCC(OC(=O)NCc2cnn(C)c2)C3)c1 (stereo not shown) [Example 274, (1-Methyl-1H-pyrazol-4-ylmethyl)-carbamic acid 3-cyano-2-[3-(3-methoxy-phenyl)-butanoylamino]-4,5,6,7-tetrahydro-benzo[b] thiophen-6-yl ester]	501 to 2000

Reference: patent US20110044938A1 (NYCOMED GMBH, priority 2006, published 2011)
